From US8329755B2, “Methods for treating retroviral infections” (Roche Palo Alto LLC, priority 2004, dated 2012)

Row | melting point [°C] | Compound
1 | 151.9 to 155.3 | Cc1cc(S(=O)(=O)N2CCSCC2)ccc1NC(=O)Cc1ccc(C)c(Oc2cc(Cl)cc(C#N)c2)c1 [Compound I-117, 2-[3-(3-Chloro-5-cyano-phenoxy)-4-methyl-phenyl]-N-[2-methyl-4-(thiomorpholine-4-sulfonyl)-phenyl]-acetamide]
2 | 182.6 to 196.5 | N#Cc1cc(C#N)cc(Oc2c(Cl)ccc(CC(=O)Nc3ccccc3Cl)c2F)c1 [Compound I-28, 2-[4-Chloro-3-(3,5-dicyano-phenoxy)-2-fluoro-phenyl]-N-(2-chloro-phenyl)-acetamide]
3 | 173 to 174 | CSc1nc(NC(=O)Cc2ccc(C)c(Oc3cc(Cl)cc(C#N)c3)c2)n(C)n1 [Compound I-230, 2-[3-(3-Chloro-5-cyano-phenoxy)-4-methyl-phenyl]-N-(2-methyl-5-methylsulfanyl-2H-[1,2,4]triazol-3-yl)-acetamide]
4 | 219.4 to 220.2 | CC(C)[C@H](N)C(=O)NS(=O)(=O)c1ccc(NC(=O)Cc2ccc(Cl)c(Oc3cc(Cl)cc(C#N)c3)c2F)c(Cl)c1.[Na] [Compound I-127, N-[4-((S)-2-Amino-3-methyl-butyrylsulfamoyl)-2-chloro-phenyl]-2-[4-chloro-3-(3-chloro-5-cyano-phenoxy)-2-fluoro-phenyl]-acetamide; sodium salt]
5 | 223.9 to 225 | Cc1cc(S(N)(=O)=O)ccc1NC(=O)Cc1ccc(Br)c(Oc2cc(C#N)cc(C(F)F)c2)c1F [Compound I-169, 2-[4-Bromo-3-(3-cyano-5-difluoromethyl-phenoxy)-2-fluoro-phenyl]-N-(2-methyl-4-sulfamoyl-phenyl)-acetamide]
6 | 151.7 to 152.3 | COCC(=O)NS(=O)(=O)c1ccc(NC(=O)Cc2ccc(Cl)c(Oc3cc(Cl)cc(C#N)c3)c2F)c(Cl)c1.[Na]
7 | 195.3 to 197.2 | CCN(CC)CC(=O)NS(=O)(=O)c1ccc(NC(=O)Cc2ccc(Cl)c(Oc3cc(Cl)cc(C#N)c3)c2F)c(Cl)c1.Cl
8 | 205.4 to 207.7 | N#Cc1cc(Oc2c(Br)ccc(CC(=O)Nc3ccc(S(N)(=O)=O)cc3Cl)c2F)cc(C(F)F)c1 [Compound I-165, 2-[4-Bromo-3-(3-cyano-5-difluoromethyl-phenoxy)-2-fluoro-phenyl]-N-(2-chloro-4-sulfamoyl-phenyl)-acetamide]
9 | 107 to 110.5 | CCc1ccc(CC(=O)Nc2ccccc2Cl)cc1Oc1c(Cl)cccc1Cl [Compound I-23, N-(2-Chloro-phenyl)-2-[3-(2,6-dichloro-phenoxy)-4-ethyl-phenyl]-acetamide]
10 | 212.9 to 214.4 | Cc1cc(CC(=O)Nc2ccc(S(N)(=O)=O)cc2Cl)cc(Oc2cc(C#N)ccc2Cl)c1 [Compound I-148, 2-[3-(2-Chloro-5-cyano-phenoxy)-5-methyl-phenyl]-N-(2-chloro-4-sulfamoyl-phenyl)-acetamide]
11 | 234.4 to 234.9 | N#Cc1cc(Cl)cc(Oc2c(Cl)ccc(CC(=O)Nc3ccc(S(N)(=O)=O)cc3Cl)c2F)c1 [Compound I-100, 2-[4-Chloro-3-(3-chloro-5-cyano-phenoxy)-2-fluoro-phenyl]-N-(2-chloro-4-sulfamoyl-phenyl)-acetamide]
12 | 181.3 to 182.1 | Cc1cc(N2CC[S+]([O-])CC2)ccc1NC(=O)Cc1ccc(C)c(Oc2cc(Cl)cc(C#N)c2)c1 [Compound I-160, 2-[3-(3-Chloro-5-cyano-phenoxy)-4-methyl-phenyl]-N-[2-methyl-4-(1-oxo-1λ^4-thiomorpholin-4-yl)-phenyl]-acetamide]
13 | 209.9 to 211.1 | CCc1ccc(CC(=O)Nc2ccc(S(N)(=O)=O)cc2)cc1Oc1cc(Br)cc(F)c1Cl [Compound I-39, 2-[3-(5-Bromo-2-chloro-3-fluoro-phenoxy)-4-ethyl-phenyl]-N-(4-sulfamoyl-phenyl)-acetamide]
14 | 218 to 218.7 | Cc1ccc(CC(=O)Nc2ccc(S(N)(=O)=O)cc2Cl)c(F)c1Oc1cc(C#N)cc(C(F)F)c1 [Compound I-84, N-(2-Chloro-4-sulfamoyl-phenyl)-2-[3-(3-cyano-5-difluoromethyl-phenoxy)-2-fluoro-4-methyl-phenyl]-acetamide]
15 | 220 to 222.3 | NS(=O)(=O)c1ccc(NC(=O)Cc2ccc(Cl)c(Sc3cc(Cl)ccc3Br)c2)cc1 [Compound I-243, 2-[3-(2-Bromo-5-chloro-phenylsulfanyl)-4-chloro-phenyl]-N-(4-sulfamoyl-phenyl)-acetamide]
16 | 226 to 227.9 | Cc1cc(CC(=O)Nc2ccc(S(N)(=O)=O)cc2)cc(C(=O)c2cc(Cl)cc(Cl)c2)c1 [Compound I-269, 2-[3-(3,5-Dichloro-benzoyl)-5-methyl-phenyl]-N-(4-sulfamoyl-phenyl)-acetamide]
17 | 172.2 to 172.8 | O=C(Cc1ccc(Cl)c(Sc2cc(Cl)ccc2Br)c1)Nc1ccccc1Cl [Compound I-244, 2-[3-(2-Bromo-5-chloro-phenylsulfanyl)-4-chloro-phenyl]-N-(2-chloro-phenyl)-acetamide]
18 | 110 to 111.5 | CCc1ccc(CC(=O)Nc2ccccc2Cl)cc1Oc1cc(C#N)cc(C#N)c1Cl [Compound I-60, 2-[3-(2-Chloro-3,5-dicyano-phenoxy)-4-ethyl-phenyl]-N-(2-chloro-phenyl)-acetamide]

Row | melting point [°C] | Compound
19 | 199.4 to 205.3 | CCc1ccc(CC(=O)Nc2ccc(S(N)(=O)=O)cc2C)cc1Oc1cc(C#N)cc(C#N)c1Cl [Compound I-53, 2-[3-(2-Chloro-3,5-dicyano-phenoxy)-4-ethyl-phenyl]-N-(2-methyl-4-sulfamoyl-phenyl)-acetamide]
20 | 210.5 to 214 | N#Cc1cc(Cl)cc(Oc2cc(CC(=O)Nc3ccc(S(N)(=O)=O)cc3)ccc2Cl)c1 [Compound I-1, 2-[4-Chloro-3-(3-chloro-5-cyano-phenoxy)-phenyl]-N-(4-sulfamoyl-phenyl)-acetamide]
21 | 218 to 220.4 | Cc1cc(S(N)(=O)=O)ccc1NC(=O)Cc1ccc(C)c(Oc2cc(C#N)cc(C(F)F)c2)c1F [Compound I-85, 2-[3-(3-Cyano-5-difluoromethyl-phenoxy)-2-fluoro-4-methyl-phenyl]-N-(2-methyl-4-sulfamoyl-phenyl)-acetamide]
22 | 182.5 to 183.9 | CCOC(=O)C(=O)Nc1ccc(NC(=O)Cc2ccc(C)c(Oc3cc(Cl)cc(C#N)c3)c2)c(C)c1 [Compound I-178, N-(4-{2-[3-(3-Chloro-5-cyano-phenoxy)-4-methyl-phenyl]-acetylamino}-3-methyl-phenyl)-oxalamic acid ethyl ester]
23 | 84.3 to 85.6 | Cc1cc(N2CCCCS2(=O)=O)ccc1NC(=O)Cc1ccc(C)c(Oc2cc(Cl)cc(C#N)c2)c1 [Compound I-158, 2-[3-(3-Chloro-5-cyano-phenoxy)-4-methyl-phenyl]-N-[4-(1,1-dioxo-1λ^6-[1,2]thiazinan-2-yl)-2-methyl-phenyl]-acetamide]
24 | 174.8 to 176.4 | Cc1cc(OCC(=O)O)ccc1NC(=O)Cc1ccc(C)c(Oc2cc(Cl)cc(C#N)c2)c1 [Compound I-234, (4-{2-[3-(3-Chloro-5-cyano-phenoxy)-4-methyl-phenyl]-acetylamino}-3-methyl-phenoxy)-acetic acid]
25 | 193.7 to 195.9 | CCc1ccc(CC(=O)Nc2ccc(S(N)(=O)=O)cc2)cc1Oc1cc(Cl)ccc1Br [Compound I-15, 2-[3-(2-Bromo-5-chloro-phenoxy)-4-ethyl-phenyl]-N-(4-sulfamoyl-phenyl)-acetamide]
26 | 168.3 to 170.4 | COc1ccc(NC(=O)Cc2ccc(C)c(Oc3cc(Cl)cc(C#N)c3)c2)c(C)n1 [Compound I-229, 2-[3-(3-Chloro-5-cyano-phenoxy)-4-methyl-phenyl]-N-(6-methoxy-2-methyl-pyridin-3-yl)-acetamide]
27 | 155.5 to 155.8 | CCc1ccc(CC(=O)Nc2ccccc2Cl)cc1Oc1cc(Br)cc(Br)c1Cl [Compound I-38, N-(2-Chloro-phenyl)-2-[3-(3,5-dibromo-2-chloro-phenoxy)-4-ethyl-phenyl]-acetamide]
28 | 169.5 to 171 | N#Cc1cc(Oc2c(Cl)ccc(CC(=O)Nc3ccccc3Cl)c2F)cc(C(F)F)c1 [Compound I-14, 2-[4-Chloro-3-(3-cyano-5-difluoromethyl-phenoxy)-2-fluoro-phenyl]-N-(2-chloro-phenyl)-acetamide]
29 | 92.4 to 95.5 | Cc1cc(S(=O)(=O)CCN)ccc1NC(=O)Cc1ccc(C)c(Oc2cc(Cl)cc(C#N)c2)c1 [Compound I-154, N-[4-(2-Amino-ethanesulfonyl)-2-methyl-phenyl]-2-[3-(3-chloro-5-cyano-phenoxy)-4-methyl-phenyl]-acetamide]
30 | 206.9 to 209.9 | CCc1ccc(CC(=O)Nc2ccc(S(N)(=O)=O)cc2)cc1Oc1cc(Cl)cc(Br)c1Cl [Compound I-35, 2-[3-(3-Bromo-2,5-dichloro-phenoxy)-4-ethyl-phenyl]-N-(4-sulfamoyl-phenyl)-acetamide]
31 | 204.4 to 207.3 | CNS(=O)(=O)c1ccc(NC(=O)Cc2ccc(Cl)c(Oc3cc(Cl)cc(C#N)c3)c2F)c(C)c1 [Compound I-108, 2-[4-Chloro-3-(3-chloro-5-cyano-phenoxy)-2-fluoro-phenyl]-N-(2-methyl-4-methylsulfamoyl-phenyl)-acetamide]
32 | 198 to 202 | N#Cc1cc(Oc2cc(CC(=O)Nc3ccc(S(N)(=O)=O)cc3Cl)ccc2Cl)cc(C(F)(F)F)c1 [Compound I-90, 2-[4-Chloro-3-(3-cyano-5-trifluoromethyl-phenoxy)-phenyl]-N-(2-chloro-4-sulfamoyl-phenyl)-acetamide]
33 | 175 to 177.2 | COc1ccc(CC(=O)Nc2ccc(S(N)(=O)=O)cc2C)cc1Oc1cc(C#N)cc(C(F)F)c1 [Compound I-93, 2-[3-(3-Cyano-5-difluoromethyl-phenoxy)-4-methoxy-phenyl]-N-(2-methyl-4-sulfamoyl-phenyl)-acetamide]
34 | 219.3 to 221.5 | NS(=O)(=O)c1ccc(NC(=O)Cc2ccc(Cl)c(Cc3cc(Cl)ccc3Cl)c2)c(Cl)c1 [Compound I-209, 2-[4-Chloro-3-(2,5-dichloro-benzyl)-phenyl]-N-(2-chloro-4-sulfamoyl-phenyl)-acetamide]
35 | 194.1 to 195.9 | Cc1cc(CC(=O)Nc2ccc(S(N)(=O)=O)cc2Cl)cc(Oc2cc(Cl)cc(C#N)c2)c1 [Compound I-143, 2-[3-(3-Chloro-5-cyano-phenoxy)-5-methyl-phenyl]-N-(2-chloro-4-sulfamoyl-phenyl)-acetamide]
